Data as given in ChEMBL document CHEMBL1153082, “Design and synthesis of N(6)-substituted-4'-thioadenosine-5'-uronamides as potent and selective human A(3) adenosine receptor agonists” (Bioorg Med Chem, 2009).

Legend:
[1] = target: T1, Adenosine receptor A1 (Homo sapiens) (UniProt P30542); assay: Displacement of [3H]R-PIA from human adenosine A1 receptor expressed in CHO cells at 1 uM; type: cell-based
T1 sequence (whole entry): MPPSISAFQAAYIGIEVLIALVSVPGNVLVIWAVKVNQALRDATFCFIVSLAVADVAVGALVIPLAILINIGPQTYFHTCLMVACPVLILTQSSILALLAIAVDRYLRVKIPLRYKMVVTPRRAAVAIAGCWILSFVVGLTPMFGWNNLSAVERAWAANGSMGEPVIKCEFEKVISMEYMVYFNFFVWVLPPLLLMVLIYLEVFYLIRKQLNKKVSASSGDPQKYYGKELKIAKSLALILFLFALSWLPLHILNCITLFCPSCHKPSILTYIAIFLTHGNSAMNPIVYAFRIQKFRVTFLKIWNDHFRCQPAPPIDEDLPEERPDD

[2] = target: T2, Adenosine receptor A2a (Homo sapiens, UniProt P29274); assay: Displacement of [3H]CGS21680 from human adenosine A2A receptor expressed in CHO cells at 1 uM; type: cell-based
[3] = target: T3, Adenosine receptor A3 (Homo sapiens, UniProt P0DMS8); assay: biochemical
T3 sequence (P0DMS8 whole entry): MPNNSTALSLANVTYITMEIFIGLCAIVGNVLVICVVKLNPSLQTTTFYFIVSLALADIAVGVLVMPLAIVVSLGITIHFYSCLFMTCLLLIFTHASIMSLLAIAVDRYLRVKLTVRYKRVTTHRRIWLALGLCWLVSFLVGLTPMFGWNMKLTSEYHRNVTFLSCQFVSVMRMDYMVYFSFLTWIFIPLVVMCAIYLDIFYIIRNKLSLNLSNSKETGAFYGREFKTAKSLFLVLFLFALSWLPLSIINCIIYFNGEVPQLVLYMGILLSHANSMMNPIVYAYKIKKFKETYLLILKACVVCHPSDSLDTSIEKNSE

[4] = target: T2, Adenosine receptor A2a; assay: biochemical
[5] = target: T4, Adenosine receptor A1 (Homo sapiens, UniProt P30542)
T4 sequence (P30542 whole entry): T1 sequence (whole entry)

[6] = target: T2, Adenosine receptor A2a
[7] = target: T4, Adenosine receptor A1; assay: biochemical

T2 sequence (P29274 whole entry): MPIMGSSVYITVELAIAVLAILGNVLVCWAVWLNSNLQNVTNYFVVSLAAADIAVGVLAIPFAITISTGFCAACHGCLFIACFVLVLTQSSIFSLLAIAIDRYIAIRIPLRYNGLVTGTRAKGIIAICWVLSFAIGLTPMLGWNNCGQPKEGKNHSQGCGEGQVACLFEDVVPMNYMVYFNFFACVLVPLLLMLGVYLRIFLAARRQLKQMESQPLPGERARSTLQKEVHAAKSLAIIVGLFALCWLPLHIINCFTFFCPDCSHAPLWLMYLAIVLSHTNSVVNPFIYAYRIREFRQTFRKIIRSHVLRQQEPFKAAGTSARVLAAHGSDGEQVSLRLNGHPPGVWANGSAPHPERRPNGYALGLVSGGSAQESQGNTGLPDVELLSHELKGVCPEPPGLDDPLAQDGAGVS

| inhibition [1] [%] | inhibition [2] [%] | Ki [3] [nM] | Ki [4] [nM] | Ki [5] [nM] | Ki [6] [nM] | Ki [7] [nM] | SMILES |
| --- | --- | --- | --- | --- | --- | --- | --- |
| 18 | 31 | 31 |  |  |  |  | Cc1ccccc1CNC(=O)[C@H]1S[C@@H](n2cnc3c(NCc4cccc(I)c4)ncnc32)[C@H](O)[C@@H]1O |
| 28 | 35 | 35.4 |  |  |  |  | O=C(NC1CCCCC1)[C@H]1S[C@@H](n2cnc3c(NCc4cccc(I)c4)ncnc32)[C@H](O)[C@@H]1O |
|  |  |  |  | 20.2 | 475 |  | CNC(=O)[C@H]1S[C@@H](n2cnc3c(NCc4cccc(I)c4)ncnc32)[C@H](O)[C@@H]1O |
| 20 | 11 | 1200 |  |  |  |  | O=C(NCc1cccc2ccccc12)[C@H]1S[C@@H](n2cnc3c(NCc4cccc(I)c4)ncnc32)[C@H](O)[C@@H]1O |
| 17 |  | 116 |  |  |  |  | O=C(NC(c1ccccc1)c1ccccc1)[C@H]1S[C@@H](n2cnc3c(NCc4cccc(I)c4)ncnc32)[C@H](O)[C@@H]1O |
|  |  | 2.16 | 1600 |  |  | 159 | O=C(NCC1CC1)[C@H]1S[C@@H](n2cnc3c(NCc4cccc(I)c4)ncnc32)[C@H](O)[C@@H]1O |
|  | 37 | 94.9 |  |  |  | 4070 | Cc1cccc(CNC(=O)[C@H]2S[C@@H](n3cnc4c(NCc5cccc(I)c5)ncnc43)[C@H](O)[C@@H]2O)c1 |
|  |  | 1.17 | 122 |  |  | 23.6 | O=C(NC1CCC1)[C@H]1S[C@@H](n2cnc3c(NCc4cccc(I)c4)ncnc32)[C@H](O)[C@@H]1O |
|  |  | 1.04 | 108 |  |  | 6.27 | CNc1ncnc2c1ncn2[C@@H]1S[C@H](C(=O)NC2CCC2)[C@@H](O)[C@H]1O |
| 20 | 38 | 433 |  |  |  |  | O=C(NCCc1ccccc1)[C@H]1S[C@@H](n2cnc3c(NCc4cccc(I)c4)ncnc32)[C@H](O)[C@@H]1O |
| 25 | 44 | 61.1 |  |  |  |  | O=C(NCc1cccc(F)c1)[C@H]1S[C@@H](n2cnc3c(NCc4cccc(I)c4)ncnc32)[C@H](O)[C@@H]1O |
|  | 27 | 0.97 |  |  |  | 48.6 | CNc1ncnc2c1ncn2[C@@H]1S[C@H](C(=O)NC2CCCC2)[C@@H](O)[C@H]1O |
| 12 | 20 | 113 |  |  |  |  | CCOc1ccccc1CNC(=O)[C@H]1S[C@@H](n2cnc3c(NCc4cccc(I)c4)ncnc32)[C@H](O)[C@@H]1O |
| 15 | 28 | 135 |  |  |  |  | Cc1ccc(CNC(=O)[C@H]2S[C@@H](n3cnc4c(NCc5cccc(I)c5)ncnc43)[C@H](O)[C@@H]2O)cc1 |
|  |  | 0.42 | 57.6 |  |  | 5.4 | CCNC(=O)[C@H]1S[C@@H](n2cnc3c(NCc4cccc(I)c4)ncnc32)[C@H](O)[C@@H]1O |
|  | 38 | 0.97 |  |  |  | 4.83 | CCNC(=O)[C@H]1S[C@@H](n2cnc3c(NC)ncnc32)[C@H](O)[C@@H]1O |
|  | 45 | 1.35 |  |  |  | 33.1 | CNc1ncnc2c1ncn2[C@@H]1S[C@H](C(=O)NCC2CC2)[C@@H](O)[C@H]1O |
|  |  | 2.16 | 161 |  |  | 6.58 | CNc1ncnc2c1ncn2[C@@H]1S[C@H](C(=O)NC2CC2)[C@@H](O)[C@H]1O |
| 34 | 23 | 97 |  |  |  |  | COc1ccccc1CNC(=O)[C@H]1S[C@@H](n2cnc3c(NCc4cccc(I)c4)ncnc32)[C@H](O)[C@@H]1O |
| 25 | 26 | 144 |  |  |  |  | O=C(NCc1cccc(Cl)c1)[C@H]1S[C@@H](n2cnc3c(NCc4cccc(I)c4)ncnc32)[C@H](O)[C@@H]1O |
|  | 20 | 1.19 |  |  |  | 69.5 | CNC(=O)[C@H]1S[C@@H](n2cnc3c(NC)ncnc32)[C@H](O)[C@@H]1O |
| 24 | 24 | 15.6 |  |  |  |  | CNc1ncnc2c1ncn2[C@@H]1S[C@H](C(=O)NCc2cccc(I)c2)[C@@H](O)[C@H]1O |

| SMILES | inhibition [1] [%] | inhibition [2] [%] | Ki [3] [nM] | Ki [4] [nM] | Ki [5] [nM] | Ki [6] [nM] | Ki [7] [nM] |
| --- | --- | --- | --- | --- | --- | --- | --- |
| O=C(NC1CC1)[C@H]1S[C@@H](n2cnc3c(NCc4cccc(I)c4)ncnc32)[C@H](O)[C@@H]1O |  |  | 3.03 | 15.2 |  |  |  |
